Measurements from patent publication US20060153844A1, “Methods to trigger, maintain and manipulate immune responses by targeted administration of biological response modifiers into lymphoid organs” (priority 2004, published 2006).

Assays:
[1] = including fatigue, malaise, fever, headache, and lymphocytopenia; cited from earlier work
[2] = system: p33-specific CD8+ T cells; experiment: p33-specific CD8+ T cell function, intracellular interferon-γ by FACS, Imiquimod as adjuvant; format: in vivo, C57BL/6 mice; settings: 10 μg p33, day 8
Procedure: C57BL/6 mice were immunized with the immunodominant MHC class I binding epitope of the lymphocytic choriomeninigitis virus glycoprotein, p33 (SEQ. ID. No. 11). On day 8 after immunization mice were bled to analyze p33-specific CD8+ T cell function by FACS staining of CD8, CD44 and intracellular interferon-γ production after a 4-hour in vitro stimulation with p33. All groups of mice received the same dose of 10 μg p33. The adjuvant Imiquimod, however, was administered by different routes and in different doses. Mice were either injected intralymphatically with 250 μg or 25 μg of Imiquimod, or they were injected subcutaneously with 250 μg or 25 μg of Imiquimod. Control mice were immunized with p33, but received no Imiquimod.

IFN-gamma = IFN-gamma in supernatants of restimulated splenocytes after s.c. peptide in IFA; format: in vivo, mice; settings: subcutaneous immunization in combination with IFA; compared to non-self PSMA 730-739
Procedure: Alternatively, mice were immunized with the PSMA 288-297 or PSMA 730-739 epitope peptide in IFA and peptide by subcutaneous injection (5 μg peptide in 100 μl, twice, at day 0 and 7). One week after the last administration, splenocytes were stimulated ex vivo with 5 μg (FIG. 7, top panel), 10 μg (FIG. 7, middle panel) and 20 μg/ml (FIG. 7, bottom panel) of peptide for 3 days and the IFN-gamma concentration in cell supernatants measured by ELISA.

## CC(C)Cn1cnc2c(N)nc3ccccc3c21 [Imiquimod, 1-(2-methylpropyl)-1H-imidazol [4,5-c]quinolin-4-amine]
[1]
  toxicity when systemically administered: significant toxicity when systemically administered
[2]; 250 μg Imiquimod intralymphatically
  induction of p33-specific CD8+ T cells: enhanced induction of p33-specific CD8+ T cells
[2]; 250 μg Imiquimod subcutaneous
  induction of p33-specific CD8+ T cells: not after subcutaneous administration

## PSMA 288-297: SEQ. ID. No. 5, self epitope conserved between mouse and human (GLPSIPVHPI; Synthetically prepared peptide sequence)
IFN-gamma
  immune responsiveness (IFN-gamma): decreased immune responsiveness
